Source: patent US9409922B2, “Imidazopyridine macrocycles as inhibitors of human immunodeficiency virus replication” (priority 2014, dated 2016)

test system: NL-RLuc virus; test: Inhibition of HIV replication: NL-RLuc reporter virus in MT-2 cells, luciferase readout; format: cell-based; details: Human immunodeficiency virus 1, MT2, 120 h, MT-2 cells infected with NL-RLuc virus, 5 days of incubation, 10% FBS, at least 2 experiments
Excerpt: Inhibition of HIV Replication:
A recombinant NL-RLuc proviral clone was constructed in which a section of the nef gene from NL4-3 was replaced with the Renilla Luciferase gene. This virus is fully infectious and can undergo multiple cycles of replication in cell culture. In addition, the luciferous reporter provides a simple and easy method for quantitating the extent of virus growth and consequently, the antiviral activity of test compounds. The plasmid pNLRLuc contains the proviral NL-Rluc DNA cloned into pUC 18 at the PvuII site. The NL-RLuc virus was prepared by transfection of 293T cells with the plasmid pNLRLuc. Transfections were performed using the LipofectAMINE PLUS kit from Invitrogen (Carlsbad, Calif.) according to the manufacturer and the virus generated was titered in MT-2 cells. For susceptibility analyses, the titrated virus was used to infect MT-2 cells in the presence of compound, and after 5 days of incubation, cells were processed and quantitated for virus growth by the amount of expressed luciferase. Assay media was RPMI 1640 supplemented with 10% heat inactivated fetal bovine serum (FBS), 100 units/ml penicillin G/100 units/ml streptomycin, 10 mM HEPES buffer pH 7.55 and 2 mM L-glutamine. The results from at least 2 experiments were used to calculate the EC50 values. Luciferase was quantitated using the Dual Luciferase kit from Promega (Madison, Wis.). Susceptibility of viruses to compounds was determined by incubation in the presence of serial dilutions of the compound. The 50% effective concentration (EC50) was calculated by using the exponential form of the median effect equation where (Fa)=1/[1+(ED50/drug conc.)^m](Johnson V A, Byington R T. Infectivity Assay. In Techniques in HIV Research. ed. Aldovini A, Walker B D. 71-76. New York: Stockton Press. 1990).

Compound | EC50 [nM]
Cc1cc2nc3cn2c(c1[C@H](OC(C)(C)C)C(=O)O)N1CCC(C)(CCCCCOc2ccccc2CNC3=O)CC1 [Example 1, (2S)-2-(tert-Butoxy)-2-{4,25-dimethyl-10-oxo-19-oxa-1,7,11,30-tetraazapentacyclo[23.2.2.1^6,^9.0^2,^7.0^13,^18]triaconta-2,4,6(30),8,13(18),14,16-heptaen-3-yl}acetic acid] | 71
Cc1cc2nc3cn2c(c1[C@H](OC(C)(C)C)C(=O)O)N1CCC(C)(CCCCCCOc2ccc(F)cc2CNC3=O)CC1 [Example 2, (2S)-2-(tert-Butoxy)-2-{15-fluoro-4,26-dimethyl-10-oxo-19-oxa-1,7,11,31-tetraazapentacyclo[24.2.2.1^6,^9.0^2,^7.0^13,^18]hentriaconta-2,4,6(31),8,13(18),14,16-heptaen-3-yl}acetic acid] | 16
Cc1cc2nc3cn2c(c1[C@H](OC(C)(C)C)C(=O)O)N1CCC(C)(CC1)OCCCCCOc1ccc(F)cc1CNC3=O [Example 3, (2S)-2-(tert-Butoxy)-2-{15-fluoro-4,26-dimethyl-10-oxo-19,25-dioxa-1,7,11,31-tetraazapentacyclo[24.2.2.1^6,^9.0^2,^7.0^13,^18]hentriaconta-2,4,6(31),8,13(18),14,16-heptaen-3-yl}acetic acid] | 27
Cc1cc2nc3cn2c(c1[C@H](OC(C)(C)C)C(=O)O)N1CCC(C)(CC1)OCCCCCOc1ccccc1Cc1nnc-3o1 [Example 4, (2S)-2-(tert-Butoxy)-2-{4,28-dimethyl-21,27,33-trioxa-1,7,11,12,34-pentaazahexacyclo[26.2.2.1^6,^9.1^10,^13.0^2,^7.0^15,^20]tetratriaconta-2,4,6(34),8,10,12,15(20),16,18-nonaen-3-yl}acetic acid] | 10
Cc1cc2nc3cn2c(c1[C@H](OC(C)(C)C)C(=O)O)N1CCC(C)(CC1)OCCCCCOc1ccc(F)cc1Cc1nc-3[nH]c1Cl [Example 5] | 7
Cc1cc2nc3cn2c(c1[C@H](OC(C)(C)C)C(=O)O)N1CCC(C)(CC1)OC/C=C/C[C@H](C)Oc1cc(F)ccc1-c1cccc-3c1 [Example 6, (2S)-2-(tert-Butoxy)-2-[(22S)-18-fluoro-4,22,28-trimethyl-21,27-dioxa-1,7,34-triazahexacyclo[26.2.2.1^6,^9.1^10,^14.0^2,^7.0^15,^20]tetratriaconta-2,4,6(34),8,10(33),11,13,15(20),16,18,24-undecaen-3-yl]acetic acid] | 5
Cc1cc2nc3cn2c(c1[C@H](OC(C)(C)C)C(=O)O)N1CCC(C)(CC1)OCCCC[C@H](C)Oc1cc(F)ccc1-c1cccc-3c1 [Example 7, (2S)-2-(tert-Butoxy)-2-[(22S)-4,17,22,28-tetramethyl-21,27-dioxa-1,7,34-triazahexacyclo[26.2.2.1^6,^9.1^10,^14.0^2,^7.0^15,^20]tetratriaconta-2,4,6(34),8,10(33),11,13,15(20),16,18-decaen-3-yl]acetic acid] | 5
Cc1ccc2c(c1)-c1cccc(c1)-c1cn3c(c([C@H](OC(C)(C)C)C(=O)O)c(C)cc3n1)N1CCC(C)(CC1)OCCCC[C@H](C)O2 [Example 8, (2S)-2-(tert-Butoxy)-2-[(22S)-4,17,22,28-tetramethyl-21,27-dioxa-1,7,34-triazahexacyclo[26.2.2.1^6,^9.1^10,^14.0^2,^7.0^15,^20]tetratriaconta-2,4,6(34),8,10(33),11,13,15(20),16,18-decaen-3-yl]acetic acid] | 15
Cc1ccc2c(c1)-c1cccc(c1)-c1cn3c(c([C@H](OC(C)(C)C)C(=O)O)c(C)cc3n1)N1CCC(C)(CC1)OC/C=C/C[C@H](C)O2 [Example 9, (2S)-2-(tert-Butoxy)-2-[(22S)-4,17,22,28-tetramethyl-21,27-dioxa-1,7,34-triazahexacyclo[26.2.2.1^6,^9.1^10,^14.0^2,^7.0^15,^20]tetratriaconta-2,4,6(34),8,10(33),11,13,15(20),16,18,24-undecaen-3-yl]acetic acid] | 9
Cc1cc2nc3cn2c(c1[C@H](OC(C)(C)C)C(=O)O)N1CCC(C)(CC1)OCCCC[C@H](C)Oc1ccc(F)cc1-c1cccc-3c1 [Example 10, (2S)-2-(tert-Butoxy)-2-[(22S)-17-fluoro-4,22,28-trimethyl-21,27-dioxa-1,7,34-triazahexacyclo[26.2.2.1^6,^9.1^10,^14.0^2,^7.0^15,^20]tetratriaconta-2,4,6(34),8,10(33),11,13,15(20),16,18-decaen-3-yl]acetic acid] | 4
Cc1cc2nc3cn2c(c1[C@H](OC(C)(C)C)C(=O)O)N1CCC(C)(CC1)OC/C=C/C[C@H](C)Oc1cc(F)c(F)cc1-c1cccc-3c1 [Example 11, (2S)-2-(tert-Butoxy)-2-[(22S)-17,18-difluoro-4,22,28-trimethyl-21,27-dioxa-1,7,34-triazahexacyclo[26.2.2.1^6,^9.1^10,^14.0^2,^7.0^15,^20]tetratriaconta-2,4,6(34),8,10(33),11,13,15(20),16,18,24-undecaen-3-yl]acetic acid] | 12
Cc1cc2nc3cn2c(c1[C@H](OC(C)(C)C)C(=O)O)N1CCC(C)(CC1)OC/C=C\C[C@H](C)Oc1cc(F)c(F)cc1-c1cccc-3c1 [Example 12, (2S)-2-(tert-Butoxy)-2-[(22S)-17,18-difluoro-4,22,28-trimethyl-21,27-dioxa-1,7,34-triazahexacyclo[26.2.2.1^6,^9.1^10,^14.0^2,^7.0^15,^20]tetratriaconta-2,4,6(34),8,10(33),11,13,15(20),16,18,24-undecaen-3-yl]acetic acid] | 3
Cc1cc2nc3cn2c(c1[C@H](OC(C)(C)C)C(=O)O)N1CCC(C)(CC1)OCCCC[C@H](C)Oc1cc(F)c(F)cc1-c1cccc-3c1 [Example 13, (2S)-2-(tert-Butoxy)-2-[(22S)-17,18-difluoro-4,22,28-trimethyl-21,27-dioxa-1,7,34-triazahexacyclo[26.2.2.1^6,^9.1^10,^14.0^2,^7.0^15,^20]tetratriaconta-2,4,6(34),8,10(33),11,13,15(20),16,18-decaen-3-yl]acetic acid] | 8
Cc1cc2nc3cn2c(c1[C@H](OC(C)(C)C)C(=O)O)N1CCC(C)(CC1)OCCCCC[C@H](C)Oc1cc(F)cc(F)c1-c1cccc-3c1 [Example 16, (2S)-2-(tert-Butoxy)-2-[(22S)-16,18-difluoro-4,22,28-trimethyl-21,27-dioxa-1,7,34-triazahexacyclo[26.2.2.1^6,^9.1^10,^14.0^2,^7.0^15,^20]tetratriaconta-2,4,6(34),8,10(33),11,13,15(20),16,18-decaen-3-yl]acetic acid] | 4
Cc1cc2c(cc1C)-c1cccc(c1)-c1cn3c(c([C@H](OC(C)(C)C)C(=O)O)c(C)cc3n1)N1CCC(C)(CC1)OCC=CC[C@H](C)O2 [Example 17, (2S)-2-(tert-Butoxy)-2-[(22S)-4,17,18,22,28-pentamethyl-21,27-dioxa-1,7,34-triazahexacyclo[26.2.2.1^6,^9.1^10,^14.0^2,^7.0^15,^20]tetratriaconta-2,4,6(34),8,10(33),11,13,15(20),16,18,24-undecaen-3-yl]acetic acid] | 6
Cc1cc2c(cc1C)-c1cccc(c1)-c1cn3c(c([C@H](OC(C)(C)C)C(=O)O)c(C)cc3n1)N1CCC(C)(CC1)OC/C=C\C[C@H](C)O2 [Example 18, (2S)-2-(tert-Butoxy)-2-[(22S)-4,17,18,22,28-pentamethyl-21,27-dioxa-1,7,34-triazahexacyclo[26.2.2.1^6,^9.1^10,^14.0^2,^7.0^15,^20]tetratriaconta-2,4,6(34),8,10(33),11,13,15(20),16,18,24-undecaen-3-yl]acetic acid] | 8
Cc1cc2c(cc1C)-c1cccc(c1)-c1cn3c(c([C@H](OC(C)(C)C)C(=O)O)c(C)cc3n1)N1CCC(C)(CC1)OCCCC[C@H](C)O2 [Example 19, (2S)-2-(tert-Butoxy)-2-[(22S)-4,17,18,22,28-pentamethyl-21,27-dioxa-1,7,34-triazahexacyclo[26.2.2.1^6,^9.1^10,^14.0^2,^7.0^15,^20]tetratriaconta-2,4,6(34),8,10(33),11,13,15(20),16,18-decaen-3-yl]acetic acid] | 15
Cc1cc2c(cc1F)-c1cccc(c1)-c1cn3c(c([C@H](OC(C)(C)C)C(=O)O)c(C)cc3n1)N1CCC(C)(CC1)OCCCC[C@H](C)O2 [Example 20, (2S)-2-(tert-Butoxy)-2-[(22S)-17-fluoro-4,18,22,28-tetramethyl-21,27-dioxa-1,7,34-triazahexacyclo[26.2.2.1^6,^9.1^10,^14.0^2,^7.0^15,^20]tetratriaconta-2,4,6(34),8,10(33),11,13,15(20),16,18-decaen-3-yl]acetic acid] | 11

same assay, conditions: MT-2 cells infected with NL-RLuc virus, 5 days of incubation, 10% FBS, at least 2 experiments; read-out: EC50

Compound | EC50 [nM]
Cc1cc2nc3cn2c(c1[C@H](OC(C)(C)C)C(=O)O)N1CCC(C)(CC1)OCC=CC[C@H](C)Oc1cc(F)cc(F)c1-c1cccc-3c1 [Example 14, (2S)-2-(tert-Butoxy)-2-[(22S)-16,18-difluoro-4,22,28-trimethyl-21,27-dioxa-1,7,34-triazahexacyclo[26.2.2.1^6,^9.1^10,^14.0^2,^7.0^15,^20]tetratriaconta-2,4,6(34),8,10(33),11,13,15(20),16,18,24-undecaen-3-yl]acetic acid] | 2
